Reference: article PMC4767141, “Discovery of Potent, Orally Bioavailable, Small-Molecule Inhibitors of WNT Signaling from a Cell-Based Pathway Screen” (Journal of Medicinal Chemistry, 2015)

Assays:
[1] = biological target: T1, ACK1 (Homo sapiens, UniProt Q07912); test: Millipore kinase panel; type: biochemical; settings: read-out: % Control
T1 construct: purchased Millipore KinaseProfiler (kinases); Cerep (receptors and ion channels)

[2] = biological target: T2, ARG (Homo sapiens, UniProt P42684); test: Millipore kinase panel; type: biochemical; settings: ATP at Km, read-out: % Control
T2 construct: purchased Millipore KinaseProfiler (kinases); Cerep (receptors and ion channels)

[3] = biological target: T3, HCK (Homo sapiens, UniProt P08631); test: Millipore kinase panel; type: biochemical; settings: ATP at Km, read-out: % Control
T3 construct: purchased Millipore KinaseProfiler (kinases); Cerep (receptors and ion channels)

[4] = biological target: T4, GSK3BETA (Homo sapiens, UniProt P49841); test: Millipore kinase panel; type: biochemical; settings: read-out: % Control
T4 construct: purchased Millipore

[5] = biological target: T5, BTK(R28H) (Homo sapiens, UniProt Q06187, R28H); test: Millipore kinase panel; type: biochemical; settings: read-out: % Control
T5 construct: purchased Millipore KinaseProfiler (kinases); Cerep (receptors and ion channels)

[6] = biological target: T6, FGFR2(N549H) (Homo sapiens, UniProt P21802, N549H); test: Millipore kinase panel; type: biochemical; settings: read-out: % Control
T6 construct: purchased Millipore KinaseProfiler (kinases); Cerep (receptors and ion channels)

[7] = biological target: T7, TIE2(Y897S) (Homo sapiens, UniProt Q02763, Y897S); test: Millipore kinase panel; type: biochemical; settings: read-out: % Control
T7 construct: purchased Millipore KinaseProfiler (kinases); Cerep (receptors and ion channels)
T7 sequence (Q02763 23-1124 Y897S): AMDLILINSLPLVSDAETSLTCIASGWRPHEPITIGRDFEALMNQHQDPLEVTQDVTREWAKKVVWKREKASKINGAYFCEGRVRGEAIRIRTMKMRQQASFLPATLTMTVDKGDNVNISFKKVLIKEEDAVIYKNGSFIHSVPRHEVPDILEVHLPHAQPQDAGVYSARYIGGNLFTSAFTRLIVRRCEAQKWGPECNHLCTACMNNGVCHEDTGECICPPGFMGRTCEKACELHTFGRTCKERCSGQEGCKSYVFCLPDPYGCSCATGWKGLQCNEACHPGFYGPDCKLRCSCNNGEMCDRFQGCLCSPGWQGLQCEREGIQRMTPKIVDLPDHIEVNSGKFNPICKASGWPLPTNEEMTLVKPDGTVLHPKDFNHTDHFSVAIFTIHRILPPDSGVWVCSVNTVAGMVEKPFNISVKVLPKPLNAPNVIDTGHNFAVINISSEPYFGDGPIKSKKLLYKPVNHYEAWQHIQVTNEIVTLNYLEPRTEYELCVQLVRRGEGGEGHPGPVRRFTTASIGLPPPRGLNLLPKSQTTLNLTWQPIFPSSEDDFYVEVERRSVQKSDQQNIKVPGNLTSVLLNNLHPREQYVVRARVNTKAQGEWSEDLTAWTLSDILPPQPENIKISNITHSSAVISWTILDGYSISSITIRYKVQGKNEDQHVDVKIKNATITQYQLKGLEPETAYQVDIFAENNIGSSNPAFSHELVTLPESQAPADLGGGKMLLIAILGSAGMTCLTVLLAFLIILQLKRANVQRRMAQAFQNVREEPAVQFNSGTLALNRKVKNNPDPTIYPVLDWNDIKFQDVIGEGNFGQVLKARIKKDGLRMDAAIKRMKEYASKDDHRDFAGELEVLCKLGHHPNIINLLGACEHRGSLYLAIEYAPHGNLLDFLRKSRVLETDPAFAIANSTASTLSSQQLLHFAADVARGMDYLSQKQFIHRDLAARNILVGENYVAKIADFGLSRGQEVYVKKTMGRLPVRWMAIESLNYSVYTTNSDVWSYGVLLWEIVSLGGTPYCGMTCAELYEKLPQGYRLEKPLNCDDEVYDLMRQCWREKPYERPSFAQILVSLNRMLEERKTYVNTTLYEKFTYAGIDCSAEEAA

[8] = biological target: T8, PKCBII (Homo sapiens, UniProt P05771); test: Millipore kinase panel; type: biochemical; settings: read-out: % Control
T8 construct: purchased Millipore KinaseProfiler (kinases); Cerep (receptors and ion channels)
T8 sequence (P05771 1-673 isoform P05771-2): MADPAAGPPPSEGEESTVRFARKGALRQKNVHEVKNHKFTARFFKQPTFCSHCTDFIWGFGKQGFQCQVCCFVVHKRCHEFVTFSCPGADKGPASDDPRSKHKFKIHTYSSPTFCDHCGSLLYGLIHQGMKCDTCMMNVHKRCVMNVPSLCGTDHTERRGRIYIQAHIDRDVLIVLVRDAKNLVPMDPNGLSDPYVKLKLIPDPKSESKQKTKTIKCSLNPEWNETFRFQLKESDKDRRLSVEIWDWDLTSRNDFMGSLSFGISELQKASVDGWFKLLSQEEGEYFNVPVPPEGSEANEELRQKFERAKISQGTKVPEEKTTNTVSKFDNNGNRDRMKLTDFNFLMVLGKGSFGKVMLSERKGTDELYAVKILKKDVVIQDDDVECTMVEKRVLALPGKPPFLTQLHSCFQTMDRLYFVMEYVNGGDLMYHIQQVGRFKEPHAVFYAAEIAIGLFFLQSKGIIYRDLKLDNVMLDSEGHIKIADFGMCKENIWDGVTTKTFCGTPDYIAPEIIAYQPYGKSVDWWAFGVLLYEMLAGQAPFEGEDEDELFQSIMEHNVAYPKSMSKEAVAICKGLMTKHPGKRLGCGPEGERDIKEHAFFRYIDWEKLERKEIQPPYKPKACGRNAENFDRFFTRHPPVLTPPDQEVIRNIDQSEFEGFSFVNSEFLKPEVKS

[9] = biological target: T9, PEK (Homo sapiens, UniProt Q9NZJ5); test: Millipore kinase panel; type: biochemical; settings: read-out: % Control
T9 construct: purchased Millipore KinaseProfiler (kinases); Cerep (receptors and ion channels)

[10] = biological target: CYP450 2C9 (Homo sapiens, UniProt P11712); test: CYP450 inhibition; type: in vitro ADME
[11] = biological target: T10, AURKC (Homo sapiens, UniProt Q9UQB9); test: Millipore kinase panel; type: biochemical; settings: read-out: % Control
T10 construct: purchased Millipore KinaseProfiler (kinases); Cerep (receptors and ion channels)
T10 sequence (Q9UQB9 whole entry): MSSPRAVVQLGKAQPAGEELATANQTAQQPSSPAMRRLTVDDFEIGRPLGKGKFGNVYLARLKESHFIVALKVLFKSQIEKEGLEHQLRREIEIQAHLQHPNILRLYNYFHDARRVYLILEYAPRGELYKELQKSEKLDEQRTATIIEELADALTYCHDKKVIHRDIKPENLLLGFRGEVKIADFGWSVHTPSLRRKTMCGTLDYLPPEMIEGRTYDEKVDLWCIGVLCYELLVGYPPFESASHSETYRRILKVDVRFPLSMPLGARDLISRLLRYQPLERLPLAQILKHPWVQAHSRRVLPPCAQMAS

[12] = biological target: T11, EGFR(T790M,L858R) (Homo sapiens, UniProt P00533, L858R/T790M); test: Millipore kinase panel; type: biochemical; settings: read-out: % Control
T11 construct: purchased Millipore KinaseProfiler (kinases); Cerep (receptors and ion channels)

[13] = biological target: T12, ABL (Q252H) (Homo sapiens, UniProt P00519, Q252H); test: Millipore kinase panel; type: biochemical; settings: read-out: % Control
T12 construct: purchased Millipore KinaseProfiler (kinases); Cerep (receptors and ion channels)

[14] = biological target: T13, IGF-1R (Homo sapiens, UniProt P08069); test: Millipore kinase panel; type: biochemical; settings: read-out: % Control
T13 construct: purchased Millipore KinaseProfiler (kinases); Cerep (receptors and ion channels)

[15] = biological target: T14, FGFR1(V561M) (Homo sapiens, UniProt P11362, V561M); test: Millipore kinase panel; type: biochemical; settings: read-out: % Control
T14 construct: purchased Millipore KinaseProfiler (kinases); Cerep (receptors and ion channels)

[16] = biological target: CYP450 2D6 (Homo sapiens, UniProt P10635); test: CYP450 inhibition; type: in vitro ADME
[17] = biological target: T15, SRC(1-530) (Homo sapiens, UniProt P12931); test: Millipore kinase panel; type: biochemical; settings: read-out: % Control
T15 construct: purchased Millipore KinaseProfiler (kinases); Cerep (receptors and ion channels)

[18] = biological target: T16, PKCIOTA (Homo sapiens, UniProt P41743); test: Millipore kinase panel; type: biochemical; settings: read-out: % Control
T16 construct: purchased Millipore KinaseProfiler (kinases); Cerep (receptors and ion channels)

[19] = biological target: T17, CKIT(V654A) (Homo sapiens, UniProt P10721, V654A); test: Millipore kinase panel; type: biochemical; settings: read-out: % Control
T17 construct: purchased Millipore KinaseProfiler (kinases); Cerep (receptors and ion channels)

[20] = biological target: T18, V1a (h) (Homo sapiens, UniProt P37288); test: CEREP binding panel; settings: agonist radioligand, read-out: % Inhibition of Control Specific Binding
T18 construct: purchased Millipore KinaseProfiler (kinases); Cerep (receptors and ion channels)

[21] = biological target: T19, EPHA4 (Homo sapiens, UniProt P54764); test: Millipore kinase panel; type: biochemical; settings: read-out: % Control
T19 construct: purchased Millipore KinaseProfiler (kinases); Cerep (receptors and ion channels)
T19 sequence (P54764 20-986): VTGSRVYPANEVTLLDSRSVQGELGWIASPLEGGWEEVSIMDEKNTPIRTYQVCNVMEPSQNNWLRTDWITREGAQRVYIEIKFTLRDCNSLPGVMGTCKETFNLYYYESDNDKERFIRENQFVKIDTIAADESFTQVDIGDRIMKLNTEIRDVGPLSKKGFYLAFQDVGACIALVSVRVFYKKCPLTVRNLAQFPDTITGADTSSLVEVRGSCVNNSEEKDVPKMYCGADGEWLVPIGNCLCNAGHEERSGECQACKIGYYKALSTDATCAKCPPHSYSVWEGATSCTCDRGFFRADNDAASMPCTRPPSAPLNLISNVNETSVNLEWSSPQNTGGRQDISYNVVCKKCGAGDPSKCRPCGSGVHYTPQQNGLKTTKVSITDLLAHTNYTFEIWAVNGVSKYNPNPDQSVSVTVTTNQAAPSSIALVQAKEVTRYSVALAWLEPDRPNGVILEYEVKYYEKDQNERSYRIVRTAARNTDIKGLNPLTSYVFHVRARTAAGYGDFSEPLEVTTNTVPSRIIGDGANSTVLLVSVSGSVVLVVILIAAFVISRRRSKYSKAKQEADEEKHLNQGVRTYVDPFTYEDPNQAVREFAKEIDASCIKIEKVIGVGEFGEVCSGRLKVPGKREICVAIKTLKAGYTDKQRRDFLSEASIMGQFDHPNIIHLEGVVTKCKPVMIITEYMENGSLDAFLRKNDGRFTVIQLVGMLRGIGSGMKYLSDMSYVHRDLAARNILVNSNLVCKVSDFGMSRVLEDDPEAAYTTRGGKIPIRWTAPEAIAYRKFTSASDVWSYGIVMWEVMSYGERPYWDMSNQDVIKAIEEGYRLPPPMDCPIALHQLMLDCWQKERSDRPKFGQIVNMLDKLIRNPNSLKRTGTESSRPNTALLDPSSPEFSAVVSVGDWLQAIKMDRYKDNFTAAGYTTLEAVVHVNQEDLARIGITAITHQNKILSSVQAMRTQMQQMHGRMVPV

[22] = biological target: T20, FMS(Y969C) (Homo sapiens, UniProt P07333, Y969C); test: Millipore kinase panel; type: biochemical; settings: read-out: % Control
T20 construct: purchased Millipore KinaseProfiler (kinases); Cerep (receptors and ion channels)

[23] = biological target: T21, TIE2(R849W) (Homo sapiens, UniProt Q02763, R849W); test: Millipore kinase panel; type: biochemical; settings: read-out: % Control
T21 construct: purchased Millipore KinaseProfiler (kinases); Cerep (receptors and ion channels)
T21 sequence (Q02763 23-1124 R849W): as the sequence (Q02763 23-1124 Y897S) above, with R827W, S875Y counted along it

[24] = biological target: T22, PDGFRALPHA(V561D) (Homo sapiens, UniProt P16234, V561D); test: Millipore kinase panel; type: biochemical; settings: read-out: % Control
T22 construct: purchased Millipore KinaseProfiler (kinases); Cerep (receptors and ion channels)
T22 sequence (P16234 24-1089 V561D): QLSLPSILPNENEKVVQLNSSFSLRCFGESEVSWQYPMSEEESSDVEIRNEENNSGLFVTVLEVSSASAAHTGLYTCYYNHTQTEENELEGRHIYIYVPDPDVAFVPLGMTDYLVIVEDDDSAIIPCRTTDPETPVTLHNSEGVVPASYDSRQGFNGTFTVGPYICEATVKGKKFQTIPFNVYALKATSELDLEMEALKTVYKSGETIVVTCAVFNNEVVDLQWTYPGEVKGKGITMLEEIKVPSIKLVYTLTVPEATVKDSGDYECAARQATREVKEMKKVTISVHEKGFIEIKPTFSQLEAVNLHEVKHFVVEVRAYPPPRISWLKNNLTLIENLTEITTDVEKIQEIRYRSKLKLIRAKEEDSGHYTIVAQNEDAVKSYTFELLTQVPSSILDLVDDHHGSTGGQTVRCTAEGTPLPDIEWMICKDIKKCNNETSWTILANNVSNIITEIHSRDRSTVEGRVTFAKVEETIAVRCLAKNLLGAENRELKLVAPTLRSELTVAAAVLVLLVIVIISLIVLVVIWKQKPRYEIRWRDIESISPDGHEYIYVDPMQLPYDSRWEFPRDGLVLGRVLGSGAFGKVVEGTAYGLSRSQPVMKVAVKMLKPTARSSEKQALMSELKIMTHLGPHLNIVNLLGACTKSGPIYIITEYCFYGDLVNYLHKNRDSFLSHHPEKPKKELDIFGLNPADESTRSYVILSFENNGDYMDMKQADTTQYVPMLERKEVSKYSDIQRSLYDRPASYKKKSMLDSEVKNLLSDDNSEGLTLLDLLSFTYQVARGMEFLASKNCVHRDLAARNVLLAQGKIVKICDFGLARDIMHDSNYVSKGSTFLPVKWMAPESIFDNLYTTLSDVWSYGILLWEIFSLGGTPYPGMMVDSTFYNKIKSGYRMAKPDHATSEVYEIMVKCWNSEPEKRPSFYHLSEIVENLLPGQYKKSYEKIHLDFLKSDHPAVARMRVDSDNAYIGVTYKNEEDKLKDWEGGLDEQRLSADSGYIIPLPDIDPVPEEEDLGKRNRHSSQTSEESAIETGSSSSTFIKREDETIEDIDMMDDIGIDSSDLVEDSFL

[25] = biological target: T23, EGFR(L858R) (Homo sapiens, UniProt P00533, L858R); test: Millipore kinase panel; type: biochemical; settings: read-out: % Control
T23 construct: purchased Millipore KinaseProfiler (kinases); Cerep (receptors and ion channels)

[26] = biological target: T24, ABL(T315I) (Homo sapiens, UniProt P00519, T315I); test: Millipore kinase panel; type: biochemical; settings: read-out: % Control
T24 construct: purchased Millipore KinaseProfiler (kinases); Cerep (receptors and ion channels)

[27] = biological target: T25, EGFR(T790M) (Homo sapiens, UniProt P00533, T790M); test: Millipore kinase panel; type: biochemical; settings: read-out: % Control
T25 construct: purchased Millipore KinaseProfiler (kinases); Cerep (receptors and ion channels)

[28] = test system: RKO-F1522 cells; test: EF1-α promoter firefly luciferase control reporter; settings: Homo sapiens, read-out: IC50, firefly luciferase reporter downstream of the EF1-α promoter
[29] = biological target: T26, CDK1/CYCLINB (Homo sapiens, UniProt P06493); test: Millipore kinase panel; type: biochemical; settings: read-out: % Control
T26 construct: purchased Millipore KinaseProfiler (kinases); Cerep (receptors and ion channels)

[30] = biological target: T27, CHK2(I157T) (Homo sapiens, UniProt O96017, I157T); test: Millipore kinase panel; type: biochemical; settings: read-out: % Control
T27 construct: purchased Millipore KinaseProfiler (kinases); Cerep (receptors and ion channels)
T27 sequence (O96017 whole entry I157T): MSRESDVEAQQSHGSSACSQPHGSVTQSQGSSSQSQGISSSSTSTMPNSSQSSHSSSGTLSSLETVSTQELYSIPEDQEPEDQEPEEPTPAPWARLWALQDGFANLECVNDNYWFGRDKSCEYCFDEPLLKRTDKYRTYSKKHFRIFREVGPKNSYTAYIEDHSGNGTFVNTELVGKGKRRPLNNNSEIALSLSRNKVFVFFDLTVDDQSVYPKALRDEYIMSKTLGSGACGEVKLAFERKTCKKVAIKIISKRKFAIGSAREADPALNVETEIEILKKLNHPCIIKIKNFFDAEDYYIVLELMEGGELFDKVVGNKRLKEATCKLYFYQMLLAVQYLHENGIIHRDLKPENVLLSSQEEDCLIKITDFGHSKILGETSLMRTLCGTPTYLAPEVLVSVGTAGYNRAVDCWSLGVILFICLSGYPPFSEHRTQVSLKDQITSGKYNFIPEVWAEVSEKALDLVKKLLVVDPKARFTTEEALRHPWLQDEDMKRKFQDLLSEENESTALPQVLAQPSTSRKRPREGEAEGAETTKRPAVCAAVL

[31] = biological target: T28, CKIT(D816V) (Homo sapiens, UniProt P10721, D816V); test: Millipore kinase panel; type: biochemical; settings: read-out: % Control
T28 construct: purchased Millipore KinaseProfiler (kinases); Cerep (receptors and ion channels)

[32] = biological target: CYP450 2C19 (Homo sapiens, UniProt P33261); test: CYP450 inhibition; type: in vitro ADME
[33] = biological target: T29, CHK2(R145W) (Homo sapiens, UniProt O96017, R145W); test: Millipore kinase panel; type: biochemical; settings: read-out: % Control
T29 construct: purchased Millipore KinaseProfiler (kinases); Cerep (receptors and ion channels)
T29 sequence (O96017 whole entry R145W): as the sequence (O96017 whole entry I157T) above, with R145W, T157I counted along it

[34] = biological target: T30, ABL (H396P) (Homo sapiens, UniProt P00519, H396P); test: Millipore kinase panel; type: biochemical; settings: read-out: % Control
T30 construct: purchased Millipore KinaseProfiler (kinases); Cerep (receptors and ion channels)

Work on `O=C1NCCC12CCN(c1c(Cl)cncc1-c1ccc(N3CCOCC3)cc1)CC2` [Compound 44, 8-(3-Chloro-5-(4-morpholin-4-ylphenyl)pyridin-4-yl)-2,8-diazaspiro[4.5]decan-1-one] yielded a remaining activity at 1 µM [1] of 0%, a remaining activity at 1 µM [2] of -12% and a remaining activity at 1 µM [3] of 3%. The remaining activity at 1 µM [4] was -25%.
In the case of `Cn1cc(-c2ccc(-c3cncc(Cl)c3N3CCC4(CCNC4=O)CC3)cc2)cn1` [Compound 74, 8-(3-Chloro-5-(4-(1-methyl-1H-pyrazol-4-yl)phenyl)pyridin-4-yl)-2,8-diazaspiro[4.5]decan-1-one], the remaining activity at 1 µM [5] is reported as -4%, the remaining activity at 1 µM [6] is reported as 1% and the remaining activity at 1 µM [7] is reported as 4%. For the same compound, the remaining activity at 1 µM [8] was -3%, the remaining activity at 1 µM [9] was 8% and the IC50 [10] was 4.2 µM. The remaining activity at 1 µM [11] was -10%, the remaining activity at 1 µM [12] was -4% and the remaining activity at 1 µM [13] was -1%. It also gave a remaining activity at 1 µM [14] of 5%, a remaining activity at 1 µM [15] of -8% and an IC50 [16] greater than 20 µM. For the same compound, the remaining activity at 1 µM [17] was -8%, the remaining activity at 1 µM [18] was -25% and the remaining activity at 1 µM [19] was -16%. For the same compound, the inhibition at 10 µM [20] was -7%, the remaining activity at 1 µM [21] was -26% and the remaining activity at 1 µM [22] was -31%. For the same compound, the remaining activity at 1 µM [23] was -6%, the remaining activity at 1 µM [24] was 6% and the remaining activity at 1 µM [25] was 1%. The remaining activity at 1 µM [26] was 7%, the remaining activity at 1 µM [27] was 0% and the IC50 [28] was greater than 10 µM. The remaining activity at 1 µM [29] was -9%, the remaining activity at 1 µM [30] was 2% and the remaining activity at 1 µM [31] was 7%. For the same compound, the IC50 [32] was 8 µM, the remaining activity at 1 µM [33] was 3% and the remaining activity at 1 µM [34] was 17%.
